Counter-ions that a name gives are not always drawn.
How the values were obtained:
C. elegans [1] = conditions: DEM at 10-100 μM, minor glutathione loss; cited from earlier work
[2] = system: dead cells within live C. elegans; experiment: Visualization of cell death with propidium iodide; type: in vivo, Caenorhabditis elegans; conditions: for cell death (propidium iodide), preceding organismal death: aged cohorts or young animals treated with DEM, 4-day old and 6 and 8 day old adults; for cell death (animals with any dead cells): at 6 and 8 days of age
Description: The red-fluorescent propidium iodide (PI)^o was used to visualize dead cells within live C. elegans after DEM treatment and during aging. Populations were incubated for 24 h at 25° C. with PI (a 10 μL volume of 0.25 mg/mL solution added to the bacterial lawn on 50 mm NGM plates) prior to the described age or with concurrent exposure to 10 mM DEM (as described above) and PI. For aging experiments^o animals were visualized at Day 6 and Day 8. Cohorts of live animals (i.e. showing spontaneous or touch-provoked movement) were isolated and mounted under glass coverslips on 2% agarose pads without anesthetic. Imaging were captures with on a Leica DMI3000B inverted microscope^o DsRed filter set and a DFC 3000G digital.
Differences between the proportion of live animals with fluorescently labelled nuclei in control versus Lip-1 and SIH treatment, either aged or exposed to DEM, were compared using a z-test.

iron = experiment: X-ray fluorescence microscopy, elemental mapping of iron; type: in vivo, Caenorhabditis elegans; design: areal density of iron, Mean Diff. / total body iron, 75% Percentile / total body iron, Maximum / total body iron, Mean / total body iron, Minimum / total body iron, 25% Percentile / total body iron, Median / total body iron, Mean Diff.: unit not given here; conditions: for areal density iron, 25% Percentile / areal density iron, 75% Percentile / areal density iron, Maximum / areal density iron, Mean / areal density iron, Median / areal density iron, Minimum / total body iron, 25% Percentile / total body iron, 75% Percentile / total body iron, Maximum / total body iron, Mean / total body iron, Median / total body iron, Minimum: 250 μM SIH or 200 μM Lip-1; for areal density of iron with aging: Tables 11 and 12; for total body iron, 25% Percentile / total body iron, 75% Percentile / total body iron, Maximum / total body iron, Mean / total body iron, Median / total body iron, Minimum: per worm
Description: Specimens were prepared for XFM using previously described protocols. Briefly, adult C. elegans were removed from NGM, washed four times in excess S-basal (0.1 M NaCl; 0.05 M KHPO4 at pH 6.0), briefly in ice-cold 18 MΩ resistant de-ionized H2O (Millipore) and twice in ice-cold CH3COONH4 (1.5% w/v). Samples were transferred onto 0.5 μm-thick silicon nitride (Si3N4) window (Silson), excess buffer wicked away and then the slide was frozen in liquid nitrogen (N2)-chilled liquid propane using a KF-80 plunge freezer (Leica Microsystems). The samples were lyophilised overnight at −40° C. and stored under low vacuum until required.
The distribution of metals was mapped at the X-ray Fluorescence Microscopy beamline at the Australian Synchrotron using the Maia detector system. The distribution of elements with atomic number<37 were mapped using an incident beam of 15.6 keV X-rays. This incident energy allowed clear separation of X-ray fluorescence (XRF) peaks from the relatively intense elastic and inelastic scatter. The incident beam (^˜1.71×10^9 photons s^−1) was focussed to approximately 2×2 μm^2(H×V, FWHM) in the sample plane and the specimen was continuously scanned through focus (1 mm sec^−1). The resulting XRF was binned in 0.8 jim intervals in both the horizontal and vertical giving virtual pixels spanning 0.64 jim^2 of the specimen probed with a dwell time of […]. XRF intensity was normalized to the incident beam flux monitored with a nitrogen filled ionization chamber with a 27 cm path length placed upstream of the focusing optics. Three single-element thin metal foils of known areal density (Mn 18.9 jig cm^−2, Fe 50.1 jig cm^−2 and Pt 42.2 jig cm^−2, Micromatter, Canada) were used to calibrate the relationship between fluorescence flux at the detector and elemental abundance. Dynamic Analysis, as implemented in GeoPIXE 7.3 (CSIRO), was used to deconvolve the full XRF spectra at each pixel in the scan region to produce quantitative elemental maps. This procedure includes a correction for an assumed specimen composition and thickness, in this case 30 jim of cellulose. Though unlikely to exactly match the actual sample characteristics, deviations from these assumptions are not significant for the results presented in this study as the effects of beam attenuation and self-absorption on calcium and iron XRF are negligible for a dried specimen of this type and size.
Analysis of elemental XRF maps was performed using a combination of tools native to GeoPIXE and ImageJ. Incident photons inelastically scattered (Compton scatter) from the sample detail the extent and internal structure of individual C. elegans. The differential scattering power of the specimens and substrate allowed individual animals (or parts thereof) to be identified as regions of interest (ROI) facilitating analysis of elemental content on a ‘per worm’ basis. This segmentation of each elemental map was achieved using the histogram of pixel intensities from Compton maps to locate the clusters within the image. ROIs composed of <10,000 pixels were deemed to be so small that their elemental content was not reflective of the elemental content of whole animals and so these were excluded from the analysis. The ‘non-worm’ region of each scan was used to calculate the value specimen elemental content was distinguishable from background noise, i.e. the critical value. The background corrected elemental maps were used to establish the areal densities and the total mass of each element associated with individual ROIs.

C. elegans [3] = experiment: Antibiotic tests: lifespan with ampicillin co-administration; type: in vivo, Caenorhabditis elegans
Description: To determine whether the increased lifespan seen with SIH treatment could be explained solely by an antibiotic effect of iron reduction, nematodes were treated with ampicillin, with and without SIH co-administration. Even in the presence of ampicillin, SIH increased median lifespan by 6 days, similar to its benefits in the absence of ampicillin (median increase of 7 days).

C. elegans [4] = experiment: Temporal rescaling by temperature: lifespan at 20° C. and 25° C.; type: in vivo, Caenorhabditis elegans
Description: The effect of temperature is evaluated separately for control and SIH treated worms, population sizes for each replicate are shown in Table 20.
For each of two replicates and treatment factors, the AFT model with Weibull baseline hazard was fitted with temperature as the covariate. The residuals from this model were then subjected to the K-S test.
For both populations, being exposed to the higher temperature of 25° C. accelerates life as expected, by approximately 30% for control worms (Otemp=0.72 (95% Cl: 0.68; 0.77) and 20% for SIH worms (Otemp=0.81 (95% Cl: 0.78; 0.84).

[5] = Day 4 Control vs. Day 4 treated (control minus treated)
[6] = Day 4 treated vs. Day 8 treated, same treatment
[7] = Day 8 Control vs. Day 8 treated (control minus treated)

CCOC(=O)/C=C\C(=O)OCC [DEM, Diethyl maleate]
effect on lifespan as reported (C. elegans [1]): increasing lifespan via hormesis

O=C(N/N=C/c1ccccc1O)c1ccncc1 [SIH, Salicylaldehyde isonicotinoyl hydrazone]
cell death (propidium iodide), preceding organismal death [2]: significantly attenuated
cell death (animals with any dead cells) [2]: completely suppressed
areal density iron, 25% Percentile (iron; Day 4): 298.3 pg μm^−2
areal density iron, 75% Percentile (iron; Day 4): 357.3 pg μm^−2
areal density iron, Maximum (iron; Day 4): 412.1 pg μm^−2
areal density iron, Mean (iron; Day 4): 321.8 pg μm^−2
areal density iron, Median (iron; Day 4): 304.4 pg μm^−2
areal density iron, Minimum (iron; Day 4): 267.1 pg μm^−2
areal density of iron, Mean Diff. (iron; [5]): 344.4
total body iron, Mean Diff. (iron; [5]): 57.71
areal density of iron, Mean Diff. (iron; Day 4 SIH vs. Day 4 Lip-1): −376.6
total body iron, Mean Diff. (iron; Day 4 SIH vs. Day 4 Lip-1): −44.97
areal density of iron, Mean Diff. (iron; [6]): −112.9
total body iron, Mean Diff. (iron; [6]): −70.26
total iron load (iron; Day 8): on par with the untreated control group
areal density iron, 25% Percentile (iron; Day 8): 381.9 pg μm^−2
areal density iron, 75% Percentile (iron; Day 8): 501.9 pg μm^−2
areal density iron, Maximum (iron; Day 8): 558 pg μm^−2
areal density iron, Mean (iron; Day 8): 434.7 pg μm^−2
areal density iron, Median (iron; Day 8): 408.9 pg μm^−2
areal density iron, Minimum (iron; Day 8): 324.2 pg μm^−2
areal density of iron, Mean Diff. (iron; [7]): 385.6
total body iron, Mean Diff. (iron; [7]): 15.8
areal density of iron, Mean Diff. (iron; Day 8 SIH vs. Day 8 Lip-1): −389.9
total body iron, Mean Diff. (iron; Day 8 SIH vs. Day 8 Lip-1): −26.49
areal density of iron with aging (iron): dramatically reduced
total body iron, 25% Percentile (iron; Day 4): 61.28
total body iron, 75% Percentile (iron; Day 4): 71.8
total body iron, Maximum (iron; Day 4): 98.92
total body iron, Mean (iron; Day 4): 68.37
total body iron, Median (iron; Day 4): 66.78
total body iron, Minimum (iron; Day 4): 41.07
total body iron, 25% Percentile (iron; Day 8): 117.5
total body iron, 75% Percentile (iron; Day 8): 169.5
total body iron, Maximum (iron; Day 8): 202
total body iron, Mean (iron; Day 8): 138.6
total body iron, Median (iron; Day 8): 127.5
total body iron, Minimum (iron; Day 8): 74.16
lifespan extension on co-administration (C. elegans [3]; SIH and the antibiotic ampicillin co-administered): additive effect on media lifespan extension
increase of median lifespan (C. elegans [3]; SIH in the absence of ampicillin): 7 days
increase of median lifespan (C. elegans [3]; SIH in the presence of ampicillin): 6 days
lifespan extension at two temperatures (C. elegans [4]): still extended lifespan by a similar dimension

Clc1cccc(CNC2=Nc3ccccc3NC23CCNCC3)c1 [Lip-1, N-[(3-chlorophenyl)methyl]-spiro[piperidine-4,2′(1′H)-quinoxalin]-3′-amine]
cell death (propidium iodide), preceding organismal death [2]: significantly attenuated
cell death (animals with any dead cells) [2]: completely suppressed
areal density iron, 25% Percentile (iron; Day 4): 630.3 pg μm^−2
areal density iron, 75% Percentile (iron; Day 4): 732.2 pg μm^−2
areal density iron, Maximum (iron; Day 4): 851.8 pg μm^−2
areal density iron, Mean (iron; Day 4): 698.5 pg μm^−2
areal density iron, Median (iron; Day 4): 711.4 pg μm^−2
areal density iron, Minimum (iron; Day 4): 590.5 pg μm^−2
areal density of iron, Mean Diff. (iron; [5]): −32.28
total body iron, Mean Diff. (iron; [5]): 12.74
areal density of iron, Mean Diff. (iron; [6]): −123.1
total body iron, Mean Diff. (iron; [6]): −51.79
areal density iron, 25% Percentile (iron; Day 8): 726.5 pg μm^−2
areal density iron, 75% Percentile (iron; Day 8): 892.4 pg μm^−2
areal density iron, Maximum (iron; Day 8): 1143 pg μm^−2
areal density iron, Mean (iron; Day 8): 821.6 pg μm^−2
areal density iron, Median (iron; Day 8): 800.5 pg μm^−2
areal density iron, Minimum (iron; Day 8): 644 pg μm^−2
areal density of iron, Mean Diff. (iron; [7]): −1.229
total body iron, Mean Diff. (iron; [7]): −10.7
areal density of iron with aging (iron): did not alter iron density
total body iron, 25% Percentile (iron; Day 4): 91.34
total body iron, 75% Percentile (iron; Day 4): 129.5
total body iron, Maximum (iron; Day 4): 148.6
total body iron, Mean (iron; Day 4): 113.3
total body iron, Median (iron; Day 4): 114.6
total body iron, Minimum (iron; Day 4): 71.51
total body iron, 25% Percentile (iron; Day 8): 128.9
total body iron, 75% Percentile (iron; Day 8): 189.6
total body iron, Maximum (iron; Day 8): 277.9
total body iron, Mean (iron; Day 8): 165.1
total body iron, Median (iron; Day 8): 157.2
total body iron, Minimum (iron; Day 8): 100

Source: US20230172940A1, “METHODS OF EXTENDING LIFESPAN BY ADMINISTERING FERROPTOSIS INHIBITORS” (COLLABORATIVE MEDICINAL DEVELOPMENT, LLC, priority 2020, published 2023)
